What was measured:
laboratory rats = experiment: Open field spontaneous activity (mobility time), anxiolytic effect; type: in vivo, rat; settings: FIG. 3, 15 minute session, 30 minutes after administration
Experimental: Open field tests were used as a measure of the spontaneous activity of laboratory rats, in order to measure the anxiolytic effects of melatonin, valerian and a combination of these two substances. Rats were placed in a behavioral room one hour before testing procedures, for purpose of habituation. Activity was tested in open boxes (open-fields: 80 cm wide, 80 cm large, 60 cm high) made of transparent Plexiglas. Animals were individually placed in the open-fields for 15 minute sessions. The following parameters were recorded: Indices of motor exploratory activity: the distance traveled, mobility time, Open Field spontaneous activity is performed on the testing day, 30 minutes after the administration of a test substance (melatonin, valerian, a combination of the two, or vehicle). • Indices of habituation: distance traveled. • During the last 5 minute period in percent of the first as last 5 minute periods. • Indices of anxiety: • Percentage of distance traveled in the central zone of the open-field. • Percentage of time spent in the central zone of the open-field.

rats = experiment: Open field center time, base-line and caffeine-relaxed rats; type: in vivo, rat; settings: FIG. 4; caffeine-relaxed rats
Experimental: As in Example 3, above, open field tests were used to measure the anxiolytic effects of melatonin, valerian and a combination of these two substances. However, in some of the rats in the present study, the effect of the test substances was measured in rats which had also received caffeine. Thus, while the study reported in Example 3 provided insights into the effect of melatonin and valerian on base-line anxiety, the results obtained in this study relate to the effect of these substances on both base-line and caffeine-induced (“caffeine-relaxed”) subjects. The same open-field method was used as in Example 3. However, in this study, the parameter that was measured was the “center time” that is, the time that the rats spend in the center of tested arena. The center time was used as an index for the anxiolytic effect of the test substances in both “base-line” and “caffeine-relaxed” rats.

RAW 264.7 cells = experiment: Nitric oxide (NO) release from LPS-activated RAW 264.7 cells, Griess Reagent System; type: cell-based, murine; settings: for inhibition of NO production when compared with the LPS-stimulated baseline cells: 1.3 μM valerenic acid
Experimental: The objective of the studies reported in working examples 1-5 hereinbelow was to evaluate the anti-inflammatory properties of Melatonin, carnosic acid (Rosemary extract), Valerenic acid and combinations thereof on a cell line derived from murine macrophages (RAW 264.7 cells) activated by lipopolysaccharide (LPS).
10^5 RAW 264.7 cells were seeded in 96-well plates in a medium containing 1% FBS, 1% Glutamine and 1% Pen/strep in DMEM.
For dose response assays, cells were treated with 2-fold concentrations of Melatonin (starting from 15.6 μM up to 1000 μM LOT # XPS150311, Yes Pharma), Rosemary extract (0.1, 0.2, 0.4, 1, 2, 4, or 10 μM, Product #302659, Batch # LAB.16-659001, Vitiva) or 10% Valerenic acid (starting from 1.56 mg/ml up to 100 mg/ml, Batch # IWTC/5949/15001, Indo World Trading Corporation) for 6 hours. Then, the test solutions were removed and the cells were induced with lipopolysaccharide (LPS) (5 ng/ml). In addition, positive control cells were treated with 10 μM dexamethasone. Nitric oxide (NO) release was measured after incubation at 37° C., 5% CO2 using a Griess Reagent System. The method is based on the chemical diazotization reaction that was originally described by Griess in 1879, which uses sulfanilamide and N-1-napthylethylenediamine dihydrochloride (NED) under acidic (phosphoric acid) conditions. This system detects NO2^− in a variety of biological and experimental liquid matrices such as tissue culture medium that was tested in this study.
For combination assays, cells were treated with various concentrations of Melatonin, Rosemary extract (containing 25% carnosic acid) and 10% Valerenic acid, at the final concentration indicated in each experiment, hereinbelow, for 22 hours together with LPS induction (5 ng/ml). […] In addition, positive control cells were treated with 10 μM dexamethasone. Nitric oxide (NO) release was tested after incubation at 37° C., 5% CO2 using the Griess Reagent System.

[1] = Example 1, FIG. 1, tested separately: 0.5 μM Melatonin, 0.7 μM carnosic acid, 22 hours together with 5 ng/ml LPS
[2] = Example 2, tested separately: 0.05 μM Melatonin, 0.07 μM carnosic acid, 5 ng/ml LPS

COc1ccc2[nH]cc(CCNC(C)=O)c2c1 [Melatonin, N-acetyl-5-methoxytryptamine]
mobility time in comparison to the vehicle control (laboratory rats): increased the mobility time
caffeine induced center motility (rats): only valerian (both when used separately and when combined with melatonin) affected caffeine induced center motility
inhibition of NO production when compared with the LPS-stimulated baseline cells (RAW 264.7 cells; [1]): none of the following individual components produced any significant inhibition
inhibition of NO production when compared with the LPS-stimulated baseline cells (RAW 264.7 cells; [2]): none of the following individual components produced any significant inhibition

CC(C)c1cc2c(c(O)c1O)[C@@]1(C(=O)O)CCCC(C)(C)[C@@H]1CC2 [carnosic acid]
inhibition of NO production when compared with the LPS-stimulated baseline cells (RAW 264.7 cells; [1]): none of the following individual components produced any significant inhibition
inhibition of NO production when compared with the LPS-stimulated baseline cells (RAW 264.7 cells; [2]): none of the following individual components produced any significant inhibition

C[C@@H]1C[C@H]2[C@@H]3CCC4=CC(=O)C=C[C@]4(C)[C@@]3(F)[C@@H](O)C[C@]2(C)[C@@]1(O)C(=O)CO [dexamethasone]
NO production by the cultured cells (RAW 264.7 cells; Example 1, FIG. 1 column 2, positive control 10 μM dexamethasone, 5 ng/ml LPS, LPS-stimulated untreated cells 40 μM): 30 µM

CC1=C2[C@H](/C=C(\C)C(=O)O)CC[C@@H](C)[C@H]2CC1 [valerenic acid]
inhibition of NO production when compared with the LPS-stimulated baseline cells (RAW 264.7 cells; [1]): none of the following individual components produced any significant inhibition
inhibition of NO production when compared with the LPS-stimulated baseline cells (RAW 264.7 cells; [2]): none of the following individual components produced any significant inhibition

— patent publication US10675269B2, “Compositions comprising melatonin” (TRINUTRA LTD., priority 2016, dated 2020)
